This is an account of results in patent US10214546B2, “Btk inhibitors” (MERCK SHARP & DOHME CORP., priority 2014, dated 2019).

Experiment [1] addresses BTK enzyme (recombinant full-length BTK, hBTK) (Homo sapiens (Human), UniProt Q06187). Description: BTK enzymatic activity LANCE TR-FRET assay. Type of experiment: biochemical. As to conditions: 50 pM hBTK, 25 μM ATP, 2 μM biotin-A5-peptide; compound range 1 μM to 0.017 nM; read-out: BTK binding IC50. The procedure:
Btk Enzyme Activity Assay Methods
BTK enzymatic activity was determined with the LANCE (Lanthanide Chelate Excite) TR-FRET (Time-resolved fluorescence resonance energy transfer) assay. […] Phosphorylation reactions were allowed to proceed for 120 minutes. […] After 60 minutes incubation with detection reagents, reaction plates were read on a PerkinElmer EnVision plate reader using standard TR-FRET protocol. […] IC50 values were determined by 4 parameter robust fit of TR-FRET ratio values vs. (Log10) compound concentrations.

Experiment [2] deals with adenosine uptake into HeLa cells. Description: [3H]Adenosine uptake assay in HeLa cells. The format is cell-based. As to conditions: [3H]adenosine accumulation in HeLa cells, compound range 10 μM to 0.032 nM, read-out: ADU inhibition IC50. How it is done:
Compounds are also screened in an adenosine uptake functional cellular assay using the protocol described below:
[^3H]Adenosine Uptake Assay Methods
Adenosine uptake activity was determined by monitoring the accumulation of tritiated adenosine into HeLa cells (ATCC catalog # CCL-2) using a PMT-based radiometric detection instrument. In this assay, the potency (IC50) of each compound was determined from a ten point (1:3 serial dilution; final compound concentration range in assay from 10 µM to […]) titration curve using the following outlined procedure. To each well of a 96-well CytoStar-T scintillating microplate (Perkin Elmer Catalog # RPNQ0163), 25 000 HeLa cells in 100 µL of growth medium comprising: Minimum Essential Media (Life Technologies Catalog #11095-080)+10% (v/v) foetal bovine serum (FBS; Sigma Aldrich Catalog # F2442) was added. These cells were incubated overnight at 37° C. in a humidified atmosphere with 5% (v/v) CO2. After this time the growth medium was removed and replaced with 40 μL assay medium comprising: Hanks balanced salts solution (HBSS; Thermo Fisher Catalog # SH30268.01)+5% (v/v) FBS. Compound stock solutions in DMSO were diluted in assay medium to 2.5× final compound concentration maintaining a constant DMSO concentration of 0.25% (v/v). 40 μL of compound in assay medium was dispensed into individual wells of the Cytostar-T plates and the plates were incubated for 30 minutes under ambient laboratory conditions. Following this incubation, 20 μL of 500 nM [^3H] adenosine (American Radiolabeled Chemicals Inc. […] The amount of radiolabel accumulation was then determined using a Perkin Elmer Topcount NXT microplate reader. In brief, HeLa cells adhere to the bottom of the Cytostar-T plate, uptake of [^3H]adenosine into these cells brings the radiolabel into sufficient proximity to excite the scintillant in the base of the plates. These events are captured by single PMT, time-resolved coincidence counting. IC50 values were determined by 4 parameter robust fit of counts per second values vs. (Log10) compound concentrations.

Like-named read-outs stand apart in the source and are kept apart here.

Chain of BTK enzyme (recombinant full-length BTK, hBTK) (Q06187 whole entry): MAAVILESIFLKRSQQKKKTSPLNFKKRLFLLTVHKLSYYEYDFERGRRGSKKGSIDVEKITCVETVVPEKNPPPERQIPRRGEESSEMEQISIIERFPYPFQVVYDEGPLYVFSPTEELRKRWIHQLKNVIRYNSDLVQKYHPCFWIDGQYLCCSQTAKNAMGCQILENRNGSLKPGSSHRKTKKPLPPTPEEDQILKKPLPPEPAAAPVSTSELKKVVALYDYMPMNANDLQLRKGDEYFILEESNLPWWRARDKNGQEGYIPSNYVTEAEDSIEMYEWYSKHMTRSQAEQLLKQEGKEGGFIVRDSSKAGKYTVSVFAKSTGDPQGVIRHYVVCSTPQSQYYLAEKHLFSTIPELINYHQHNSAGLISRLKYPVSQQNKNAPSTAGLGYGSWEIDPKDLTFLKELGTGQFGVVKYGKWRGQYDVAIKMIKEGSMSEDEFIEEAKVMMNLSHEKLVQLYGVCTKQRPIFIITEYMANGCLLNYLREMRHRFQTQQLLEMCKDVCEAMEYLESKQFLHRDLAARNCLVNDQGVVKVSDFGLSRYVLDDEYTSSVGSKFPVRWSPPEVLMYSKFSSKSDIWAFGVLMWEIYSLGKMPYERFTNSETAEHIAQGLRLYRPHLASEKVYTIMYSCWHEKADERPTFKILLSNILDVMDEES

In the case of `CC(O)(c1ccc(-c2nc([C@@H]3CC[C@H]4CCC(=O)N4C3)n3ccnc(N)c23)cc1)C1CC2CCC1CC2` (stereo partly drawn) [Example 143, (6R,8aS)-6-{8-amino-1-[4-(1-bicyclo[2.2.2]oct-2-yl-1-hydroxyethyl)phenyl]imidazo[1,5-a]pyrazin-3-yl}hexahydroindolizin-3(2H)-one], the IC50 was 900 nM in experiment [1] and 839 nM in experiment [2].

Regarding `C[C@@](O)(c1ccc(-c2nc([C@H]3CN4C(=O)COC[C@@H]4CO3)n3ccnc(N)c23)cc1)c1cccc(C(F)(F)F)c1` [Example 176, (7R,9aR)-7-[8-amino-1-(4-{(1R)-1-hydroxy-1-[3-(trifluoromethyl)phenyl]ethyl}phenyl)imidazo [1,5-a]pyrazin-3-yl]tetrahydro-1H-[1,4]oxazino[3,4-c][1,4]oxazin-4(3H)-one], the IC50 in experiment [1] came to 7.5 nM; in experiment [2] (Homo sapiens, HeLa), 4270 nM.

For the molecule `CC(C)C(C)(O)c1ccc(-c2nc([C@@H]3CC[C@H]4CCC(=O)N4C3)n3ccnc(N)c23)cc1` (stereo partly drawn) [Example 14, (6R,8aS)-6-{8-amino-1-[4-(1-hydroxy-1,2-dimethylpropyl)phenyl]imidazo[1,5-a]pyrazin-3-yl}hexahydroindolizin-3(2H)-one], the IC50 was found to be 256 nM in experiment [1] and 6950 nM in experiment [2] (Homo sapiens, HeLa).

`CC(O)(c1ccc(-c2nc([C@@H]3CC[C@H]4CCC(=O)N4C3)n3ccnc(N)c23)cc1)c1cc(C(F)(F)F)cc(C(F)(F)F)c1` (stereo partly drawn) [Example 146, (6R,8aS)-6-[8-amino-1-(4-{1-[3,5-bis(trifluoromethyl)phenyl]-1-hydroxyethyl}phenyl)imidazo[1,5-a]pyrazin-3-yl]hexahydroindolizin-3(2H)-one]: the IC50 came out at 752 nM in experiment [1] and 1490 nM in experiment [2] (Homo sapiens, HeLa).

Take `CC(C)(c1cccc([C@](C)(O)c2ccc(-c3nc([C@@H]4CC[C@H]5CCC(=O)N5C4)n4ccnc(N)c34)cc2)c1)C(F)(F)F` [Example 110, (6R,8aS)-6-[8-amino-1-(4-{(1R)-1-hydroxy-1-[3-(2,2,2-trifluoro-1,1-dimethylethyl)phenyl]ethyl}phenyl)imidazo[1,5-a]pyrazin-3-yl]hexahydroindolizin-3(2H)-one]: the IC50 in experiment [1] is 0.95 nM; in experiment [2] (Homo sapiens, HeLa) it was 1700 nM.

With `Nc1nccn2c([C@@H]3CC[C@H]4CCC(=O)N4C3)nc(-c3ccc(C(O)(c4ccccc4)C(F)(F)F)cc3)c12` (stereo partly drawn) [Example 12, (6R,8aS)-6-(8-amino-1-(4-(2,2,2-trifluoro-1-hydroxy-1-phenethyl)phenyl)imidazo[1,5-a]pyrazin-3-yl)hexahydroindolizin-3(2H)-one], the half-inhibitory concentration (IC50) in experiment [1] worked out at 3.4 nM; in experiment [2] (Homo sapiens, HeLa), 1240 nM.

`CCOc1cc(C(C)(O)c2cccc(C)c2)ccc1-c1nc([C@@H]2CC[C@H]3CCC(=O)N3C2)n2ccnc(N)c12` (stereo partly drawn) [Example 166, (6R,8aS)-6-(8-amino-1-{2-ethoxy-4-[1-hydroxy-1-(3-methylphenyl)ethyl]phenyl}imidazo[1,5-a]pyrazin-3-yl)hexahydroindolizin-3(2H)-one]: the IC50 in experiment [1] was determined as 2 nM; in experiment [2], 10000 nM.

For the molecule `C[C@@](O)(c1ccc(-c2nc([C@@H]3CC[C@H]4CCC(=O)N4C3)n3ccnc(N)c23)cc1)c1cccc(C2CC2)c1` [Example 38, (6R,8aS)-6-(8-amino-1-{4-[(1R)-1-(3-cyclopropylphenyl)-1-hydroxyethyl]phenyl}imidazo[1,5-a]pyrazin-3-yl)hexahydroindolizin-3(2H)-one], the 50% inhibitory concentration (IC50) worked out at 0.07 nM in experiment [1] and 1840 nM in experiment [2] (Homo sapiens, HeLa).

As to `CC(C)C(O)(c1ccc(-c2nc([C@@H]3CC[C@H]4CCC(=O)N4C3)n3ccnc(N)c23)cc1)c1cccc(C(F)(F)F)c1` (stereo partly drawn) [Example 76, (6R,8aS)-6-[8-amino-1-(4-{1-hydroxy-2-methyl-1-[3-(trifluoromethyl)phenyl]propyl}phenyl)imidazo [1,5-a]pyrazin-3-yl]hexahydroindolizin-3(2H)-one], the IC50 in experiment [1] is 1000 nM; in experiment [2] (Homo sapiens, HeLa) it was 2100 nM.

On to `Nc1nccn2c([C@@H]3CC[C@H]4CCC(=O)N4C3)nc(-c3ccc(C(O)(c4cccc(C(F)(F)F)c4)C(F)(F)F)cc3)c12` (stereo partly drawn) [Example 27, (6R,8aS)-6-[8-amino-1-(4-{2,2,2-trifluoro-1-hydroxy-1-[3-(trifluoromethyl)phenyl]ethyl}phenyl)imidazo [1,5-a]pyrazin-3-yl]hexahydroindolizin-3(2H)-one], for which the IC50 in experiment [1] came out at 9.8 nM; in experiment [2] (Homo sapiens, HeLa), 1240 nM.

On to `Nc1nccn2c([C@@H]3CC[C@H]4CCC(=O)N4C3)nc(-c3ccc(C(O)(c4cccc(C(F)(F)F)c4)C(F)F)cc3)c12` (stereo partly drawn) [Example 108, (6R,8aS)-6-[8-amino-1-(4-{2,2-difluoro-1-hydroxy-1-[3-(trifluoromethyl)phenyl]ethyl}phenyl)imidazo [1,5-a]pyrazin-3-yl]hexahydroindolizin-3(2H)-one], for which the IC50 stood at 678 nM in experiment [1] and 467 nM in experiment [2].

With `CCOc1cc(C(O)(c2cccc(C(F)(F)F)c2)C(F)(F)F)ccc1-c1nc([C@@H]2CC[C@H]3CCC(=O)N3C2)n2ccnc(N)c12` (stereo partly drawn) [Example 214, (6R,8aS)-6-[8-amino-1-(2-ethoxy-4-{2,2,2-trifluoro-1-hydroxy-1-[3-(trifluoromethyl)phenyl]ethyl}phenyl)imidazo [1,5-a]pyrazin-3-yl]hexahydroindolizin-3(2H)-one], the half-maximal inhibitory concentration (IC50) was found to be 4.1 nM in experiment [1] and 3110 nM in experiment [2] (Homo sapiens, HeLa).

As to `Cc1cccc([C@@](C)(O)c2ccc(-c3nc([C@@H]4CC[C@H]5CCC(=O)N5C4)n4ccnc(N)c34)cc2)c1` [Example 53, (6R,8aS)-6-(8-amino-1-{4-[(1S)-1-hydroxy-1-(3-methylphenyl)ethyl]phenyl}imidazo[1,5-a]pyrazin-3-yl)hexahydroindolizin-3(2H)-one], the IC50 in experiment [1] was 6.5 nM; in experiment [2] (Homo sapiens, HeLa) it was 671 nM.

On to `Nc1ncc(Cl)n2c([C@@H]3CC[C@H]4CCC(=O)N4C3)nc(-c3ccc(C(O)c4cc(C(F)(F)F)ccc4F)cc3)c12` (some centres unmarked) [Example 126], for which the IC50 was 1000 nM in experiment [1] and 1070 nM in experiment [2] (Homo sapiens, HeLa).

As to `CCOc1cc([C@](C)(O)c2cccc(C(F)(F)F)c2)cc(F)c1-c1nc([C@@H]2CC[C@H]3CCC(=O)N3C2)n2ccnc(N)c12` [Example 213, (6R,8aS)-6-[8-amino-1-(2-ethoxy-6-fluoro-4-{(1R)-1-hydroxy-1-[3-(trifluoromethyl)phenyl]ethyl}phenyl)imidazo [1,5-a]pyrazin-3-yl]hexahydroindolizin-3(2H)-one], the IC50 in experiment [1] stood at 0.63 nM; in experiment [2] (Homo sapiens, HeLa) it was 6000 nM.

Turning to `C[C@@](O)(c1ccc(-c2nc([C@@H]3CC[C@@H]4N(C3)C(=O)CC43CC3)n3ccnc(N)c23)cc1)c1cccc(C(F)(F)F)c1` [Example 188, (6′R,8a′S)-6′-[8-amino-1-(4-{(1R)-1-hydroxy-1-[3-(trifluoromethyl)phenyl]ethyl}phenyl)imidazo [1,5-a]pyrazin-3-yl]tetrahydro-5′H-spiro[cyclopropane-1,1′-indolizin]-3′(2′H)-one], the IC50 in experiment [1] is 1.2 nM; in experiment [2] (Homo sapiens, HeLa) it was 2500 nM.

Consider `Cc1ccc(C(F)(F)F)cc1C(O)c1ccc(-c2nc([C@@H]3CC[C@H]4CCC(=O)N4C3)n3ccnc(N)c23)cc1` (stereo partly drawn) [Example 127, (6R,8aS)-6-[8-amino-1-(4-{hydroxy[2-methyl-5-(trifluoromethyl)phenyl]methyl}phenyl)imidazo [1,5-a]pyrazin-3-yl]hexahydroindolizin-3(2H)-one], for which the IC50 turned out to be 459 nM in experiment [1] and 2140 nM in experiment [2] (Homo sapiens, HeLa).

`Cc1cccc([C@](C)(O)c2ccc(-c3nc([C@@H]4CC[C@H]5CCC(=O)N5C4)n4ccnc(N)c34)cc2)c1` [Example 46, (6R,8aS)-6-(8-amino-1-(4-[(1R)-1-hydroxy-1-(3-methylphenyl)ethyl]phenyl}imidazo[1,5-a]pyrazin-3-yl)hexahydroindolizin-3(2H)-one]: the IC50 stood at 0.23 nM in experiment [1] and 3210 nM in experiment [2] (Homo sapiens, HeLa).

As for `CC(O)(c1cccc(C(F)(F)F)c1)c1ccc(-c2nc([C@@H]3CC[C@H]4CCC(=O)N4C3)n3c(F)cnc(N)c23)c(F)c1` (stereo partly drawn) [Example 185, (6R,8aS)-6-[8-amino-5-fluoro-1-(2-fluoro-4-{1-hydroxy-1-[3-(trifluoromethyl)phenyl]ethyl}phenyl)imidazo [1,5-a]pyrazin-3-yl]hexahydroindolizin-3(2H)-one], the IC50 worked out at 5 nM in experiment [1] and 2390 nM in experiment [2].
